This is an account of results in ChEMBL document CHEMBL1201862, “PubChem BioAssay data set” (2004).

Where “and” joins values, the source holds several entries; their conditions need not be identical. Equal entries are not always repeated.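 Grown in 96-well plates, cells were treated for 48 hours with each compound at five concentrations. Insufficient inhibition: endpoint recorded as highest concentration tested. Here, GI50 denotes the concentration required for 50% inhibition of growth.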 Calls of active or inactive are those of the source. Rule as the data show it: active = GI50 up to about 1.1 µM and inactive = higher. Where only a bound is given, the exact number is not on record here.

Experiment in all cases: NCI-60 cell line screen, 48 h
Assay [1] relates to T47D.
Assay [2] relates to SW-620.
Assay [3] has as its system TK-10.
Assay [4] concerns SK-MEL-2.
In assay [5] the test system is UACC-62.
Assay [6] relates to MOLT-4.
Assay [7] has as its system BT-549.
Assay [8] has as its system OVCAR-4.
In assay [9] the test system is OVCAR-8.
For assay [10], the system named is NCI/ADR-RES.
Assay [11] relates to PC-3.
In assay [12] the test system is ACHN.
For assay [13], the system named is EKVX.
Assay [14] deals with HOP-62.
Assay [15] concerns SN12C.
For assay [16], the system named is HOP-92.
For assay [17], the system named is DU-145.
Assay [18] concerns SK-MEL-28.
In assay [19] the test system is SR.

`C#CCn1c(=O)c(I)cn(/C(=C/C(=O)OCC)C(=O)OCC)c1=O`: the GI50 in assay [1] was 0.818 µM (active); in assay [2], 1.18 µM (inactive); in assay [3], 0.3 µM (active); in assay [4], 15.5 µM (inactive); in [5], 5.42 µM (inactive); in assay [6], < 0.0195 µM (active). In addition, the GI50 in assay [7] was 11.5 µM (inactive); in [8], 8.22 µM (inactive); in [9], 3.56 µM (inactive); in [10], 18.9 µM (inactive); in assay [11], 5.06 µM (inactive); in assay [12] it was 1.67 µM (inactive). The GI50 is 2.94 µM (inactive) in assay [13]; 17.5 µM (inactive) in [14]; 15.9 µM (inactive) in [15]; 1.75 µM (inactive) in [16]; 10 µM (inactive) in assay [17]; 8 µM (inactive) in assay [18].

As for `COc1ccc(C2Oc3c(OC)cc(CCCO)cc3C2CO)cc1OC` (stereo unspecified), the GI50 in assay [1] was 10.9 µM (inactive) and 18.3 µM (inactive); in assay [2], > 100 µM (inactive); in assay [3] it was > 100 µM (inactive); in [4], 95.1 µM (inactive); in assay [5], 54.6 µM (inactive) and 83.9 µM (inactive); in [6], 42.5 µM (inactive) and 26.9 µM (inactive). Besides, the GI50 is 96.2 µM (inactive) and 50.7 µM (inactive) in assay [7]; > 100 µM (inactive) in assay [8]; > 100 µM (inactive) and 89.3 µM (inactive) in [9]; 69 µM (inactive) in assay [10]; > 100 µM (inactive) in [11]; > 100 µM (inactive) and 76.6 µM (inactive) in [12]. Besides, the GI50 in assay [13] is 61.4 µM (inactive) and 39.9 µM (inactive); in [14], > 100 µM (inactive); in [15] it was > 100 µM (inactive); in [16], 56.5 µM (inactive); in [17], > 100 µM (inactive); in assay [18], 74 µM (inactive).

With `CN(CCN1C(=O)c2cccc3cccc(c23)C1=O)CCN1C(=O)c2cccc3cccc(c23)C1=O`, the GI50 in assay [1] is 1.5 µM (inactive); in [3], 14.1 µM (inactive); in assay [4] it was 45.7 µM (inactive); in [5], 30 µM (inactive); in assay [6], 7.73 µM (inactive); in assay [7] it was 53.1 µM (inactive). The GI50 is > 100 µM (inactive) in assay [8]; 5.55 µM (inactive) in assay [9]; 13.5 µM (inactive) in assay [10]; > 100 µM (inactive) in assay [11]; 7.69 µM (inactive) in [12]; > 100 µM (inactive) in assay [13]. Further, the GI50 in assay [14] was 12.5 µM (inactive); in assay [15], 76 µM (inactive); in [19], 3.37 µM (inactive); in assay [17] it was > 100 µM (inactive); in [18] it was > 100 µM (inactive).

In the case of `O=c1c2sc3ccccc3sc=2c(=O)c2c(Cl)c(Cl)c(Cl)c(Cl)c12`, the GI50 in [1], in [2], in assay [3], in [4], in [5] and in assay [6] was > 100 µM (inactive) each time. The GI50 in [7], in assay [8], in assay [9], in assay [10], in assay [11] and in [12] was > 100 µM (inactive) each time. The GI50 in assay [13], in assay [14], in assay [15], in [19], in [17] and in assay [18] was > 100 µM (inactive) in each case.

Regarding `CCNC(=O)Cc1nc2c(O)ncnc2n1C1OC(CO)C(O)C1O` (stereo unspecified), the GI50 in [1], in assay [2], in assay [3], in assay [4], in [5] and in assay [6] was > 100 µM (inactive) throughout. In addition, the GI50 in [7], in assay [8], in [9], in assay [10], in assay [11] and in [12] was > 100 µM (inactive) in each case. Besides, the GI50 in assay [13], in [14], in assay [15], in assay [16], in assay [17] and in [18] was > 100 µM (inactive) each time.

`C[N+]1([O-])CCC(O)(C2CC2)CC1` (stereo unspecified): the GI50 in [1], in assay [2], in assay [3], in assay [4], in [5] and in assay [6] was > 100 µM (inactive) in each case. In addition, the GI50 in assay [7], in assay [8], in assay [9], in [10], in assay [11] and in assay [12] was > 100 µM (inactive) in each case. The GI50 in assay [13] is > 100 µM (inactive); in assay [14] it was > 100 µM (inactive); in assay [15], > 100 µM (inactive); in [19] it was > 100 µM (inactive); in assay [17], > 100 µM (inactive); in assay [18], 0.0399 µM (active).

On to `COc1ccc2nc3cc(Cl)ccc3c(NCCCNCc3cc(OC)c(OC)c(OC)c3)c2c1`, for which the GI50 in assay [1] was 1.89 µM (inactive); in assay [2], 0.733 µM (active); in assay [3], 1.73 µM (inactive); in assay [4], 1.91 µM (inactive); in [5], 1.91 µM (inactive); in [6], 0.515 µM (active). The GI50 in assay [7] was 1.76 µM (inactive); in [8], 1.78 µM (inactive); in assay [9], 1.77 µM (inactive); in assay [10], 2.08 µM (inactive); in [11], 1.4 µM (inactive); in assay [12], 1.62 µM (inactive). Further, the GI50 in assay [13] is 1.47 µM (inactive); in assay [14] it was 1.32 µM (inactive); in assay [15] it was 1.53 µM (inactive); in assay [19], 1.2 µM (inactive); in assay [17], 1.7 µM (inactive); in [18] it was 1.67 µM (inactive).

Take `O=c1[nH]cc(NCCCl)c(=O)[nH]1`: the GI50 in [1], in assay [2], in assay [3], in assay [4], in assay [5] and in assay [6] was > 100 µM (inactive) throughout. For the same compound, the GI50 in assay [7], in assay [8], in assay [9], in assay [10], in assay [11] and in assay [12] was > 100 µM (inactive) each time. Further, the GI50 in assay [13], in assay [14], in assay [15], in [16], in [17] and in assay [18] was > 100 µM (inactive) throughout.

`COC(=O)C1C2CCCN2OC1(C)CO` (stereo unspecified): the GI50 in [1], in assay [2], in assay [3], in [4], in assay [5] and in assay [6] was > 100 µM (inactive) in each case. Besides, the GI50 in [7], in assay [8], in [9], in assay [10], in assay [11] and in [12] was > 100 µM (inactive) each time. For the same compound, the GI50 in assay [13], in assay [14], in assay [15], in assay [19], in assay [17] and in [18] was > 100 µM (inactive) in each case.

As for `O=C1Nc2cccc(Cl)c2/C1=C\c1cccnc1`, the GI50 in [1] is 3.65 µM (inactive); in assay [2], 9.57 µM (inactive); in assay [3] it was 17.8 µM (inactive); in [4] it was 11.1 µM (inactive); in assay [6], 4.23 µM (inactive); in assay [7] it was 8.53 µM (inactive). For the same compound, the GI50 in [8] is 12.7 µM (inactive); in assay [9] it was 4.33 µM (inactive); in [10], 4.43 µM (inactive); in assay [11] it was 14.8 µM (inactive); in assay [12] it was 10.8 µM (inactive); in assay [13], 17.6 µM (inactive). Moreover, the GI50 in [14] is 6.12 µM (inactive); in assay [15], 7.82 µM (inactive); in [16], 27.7 µM (inactive); in assay [17], 6.37 µM (inactive); in [18], 16.4 µM (inactive).

On to `Clc1ccc2c(NCCNc3ccnc4cc(Cl)ccc34)ccnc2c1`, for which the GI50 is 23.6 µM (inactive) in [1]; 13.6 µM (inactive) in assay [2]; 17.9 µM (inactive) in assay [3]; 18.9 µM (inactive) in [4]; 18.1 µM (inactive) in assay [5]; 17.4 µM (inactive) in [6]. In addition, the GI50 in assay [7] was 19.2 µM (inactive); in assay [8], 20 µM (inactive); in assay [9], 19.7 µM (inactive); in [10], 30.8 µM (inactive); in [11] it was 17 µM (inactive); in assay [12] it was 17.8 µM (inactive). Besides, the GI50 is 19.2 µM (inactive) in assay [13]; 16.2 µM (inactive) in [14]; 17.8 µM (inactive) in assay [15]; 15.2 µM (inactive) in assay [16]; 22.8 µM (inactive) in [17]; 17.3 µM (inactive) in assay [18].
